Data from US10857197B2, “Treatment of HMGB1-mediated inflammation” (The Feinstein Institue for Medical Research, priority 2014, dated 2020).
Positions count from the first letter of the chain named. In names and notes the source's numbering stands.

Experiments:
RAW 264.7 cells = assay: TNF release from RAW 264.7 cells stimulated with HMGB1 isoforms; format: cell-based, murine; conditions: 1 μg/ml, 16 h
Method: (§1) Cell isolation and culture. […] […]. TNF released was measured by ELISA.
(§2) Cytokine and NF-κB measurements. […] Twenty two cytokines or chemokines were determined simultaneously.

human MD2 = target: T1, human MD2 (Homo sapiens, UniProt Q9Y6Y9); assay: Surface plasmon resonance (BIAcore) binding to human MD2; conditions: SPR
T1 sequence (Q9Y6Y9 19-160): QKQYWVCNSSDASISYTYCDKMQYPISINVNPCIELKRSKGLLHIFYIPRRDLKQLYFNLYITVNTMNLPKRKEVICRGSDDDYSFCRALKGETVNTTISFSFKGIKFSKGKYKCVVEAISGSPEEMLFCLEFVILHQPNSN

human TLR4 = human TLR4 (Homo sapiens, UniProt O00206); assay: SPR binding to TLR4 coated on the chip
[1] = system: thioglycollate-elicited peritoneal mouse macrophages; assay: HMGB1-induced cytokine release, mouse peritoneal macrophages (cytokine Ab array); format: cell-based; conditions: HMGB1 1 μg/ml, peptide 50 μg/ml, 16 h
Method: as §1, §2

[2] = system: LPS-induced systemic cytokine levels; assay: LPS injection in mice, serum TNF and IL-6; format: in vivo; conditions: LPS 8 mg/kg i.p., peptide 500 μg/mouse i.p., 90 minutes
Method: as §2

HMGB1 = target: T2, HMGB1 (Rattus norvegicus, UniProt P63159); assay: SPR binding of peptide to HMGB1 coated on the chip; conditions: absence of MD2
T2 sequence (P63159 1-215): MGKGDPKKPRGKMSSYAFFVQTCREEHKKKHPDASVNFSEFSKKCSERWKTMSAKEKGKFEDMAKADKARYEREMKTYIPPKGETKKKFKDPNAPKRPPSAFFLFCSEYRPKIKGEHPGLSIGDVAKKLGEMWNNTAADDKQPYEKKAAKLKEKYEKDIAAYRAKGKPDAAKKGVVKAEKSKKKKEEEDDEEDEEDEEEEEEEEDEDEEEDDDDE

[3] = Acetaminophen (APAP) hepatic toxicity model; format: in vivo, mouse
Method: For the acetaminophen (APAP) hepatic toxicity model, three sets of experiments were conducted. In all experiments, mice were routinely fasted overnight and received intraperitoneal (IP) injection of APAP (350 mg/kg for survival studies and 400 mg/kg for serum measurements when mice were euthanized at 24 h post-APAP) as previous described. […] Mice had APAP injection and were euthanized 24 hours later (for serum measurements) or monitored for 2 weeks (for survival studies). […] In survival experiments, mice had APAP injection and received anti-HMGB1 antibodies (5 μg/mouse, IP, once daily for 4 days followed by two additional doses once every other day beginning at 2 hours post-APAP). Irrelevant non-immune IgG was used as controls. For serum measurements, mice subjected to APAP injection and received injection of monoclonal anti-HMGB1 antibody (5 μg/mouse, injected IP at 2 and 7 hours post-APAP) and euthanized at 24 hours post-APAP. The third set of experiments was used to assess the efficacy of P5779 in APAP model in wild type mice. […] Hepatotoxicity was determined by serum levels of glutamate dehydrogenase (GLDH), alanine aminotransferease (ALT) and aspartate aminotransferase (AST) as described previously. Antoine et al., Hepatology 58:777-787 (2013).
Histological evaluation. […] sections were stained with hematoxylin and eosin.

[4] = system: LPS-stimulated primary human macrophages; assay: LPS-stimulated cytokine/chemokine release, primary human macrophages (cytokine Ab array); format: cell-based; conditions: LPS 2 ng/ml, peptide 50 μg/ml, 16 h
Method: as §2

[5] = Cecal ligation and puncture (CLP) sepsis model; format: in vivo; conditions: 50 or 500 μg/mouse i.p. once a day for 4 days from 24 h after CLP
Source text: Survival was monitored for 2 weeks.

[6] = 500 μg/mouse i.p. at surgery, 6 h
[7] = system: HMGB1-induced TNF release, primary human macrophages; assay: HMGB1-induced TNF release in primary human macrophages (ELISA); format: cell-based; conditions: HMGB1 1 μg/ml, 16 h
[8] = system: Poly I:C, S100A12, LPS, PGN and CpG DNA-mediated TNF release, primary human macrophages; conditions: 16 h

Sequence of human TLR4 (O00206 24-839): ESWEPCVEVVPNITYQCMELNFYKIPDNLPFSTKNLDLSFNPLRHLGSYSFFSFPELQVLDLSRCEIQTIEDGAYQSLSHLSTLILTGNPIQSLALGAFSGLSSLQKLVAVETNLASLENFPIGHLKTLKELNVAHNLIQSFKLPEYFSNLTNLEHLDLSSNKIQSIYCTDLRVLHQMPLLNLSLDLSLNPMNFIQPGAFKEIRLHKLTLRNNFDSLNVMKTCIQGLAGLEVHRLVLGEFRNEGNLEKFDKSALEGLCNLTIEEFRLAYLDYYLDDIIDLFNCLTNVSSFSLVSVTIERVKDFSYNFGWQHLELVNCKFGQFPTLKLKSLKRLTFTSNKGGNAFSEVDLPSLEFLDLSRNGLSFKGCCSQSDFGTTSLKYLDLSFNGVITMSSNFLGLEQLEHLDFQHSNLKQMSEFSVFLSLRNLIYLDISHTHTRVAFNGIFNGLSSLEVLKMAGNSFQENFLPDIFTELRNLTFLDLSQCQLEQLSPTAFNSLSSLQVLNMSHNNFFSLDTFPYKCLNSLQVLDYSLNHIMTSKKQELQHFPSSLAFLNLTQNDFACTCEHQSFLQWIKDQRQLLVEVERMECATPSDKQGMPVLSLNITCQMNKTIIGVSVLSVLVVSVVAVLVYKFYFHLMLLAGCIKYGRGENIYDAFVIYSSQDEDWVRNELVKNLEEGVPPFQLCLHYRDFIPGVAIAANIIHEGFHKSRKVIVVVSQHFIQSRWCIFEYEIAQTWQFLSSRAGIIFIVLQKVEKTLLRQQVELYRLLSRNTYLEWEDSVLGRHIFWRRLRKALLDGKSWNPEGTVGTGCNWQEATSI

Molecule: disulfide HMGB1: recombinant HMGB1 with Cys23-Cys45 disulfide bond and reduced Cys106
- TNF release induced by HMGB1 isoform (RAW 264.7 cells): induced TNF secretion
- Kd (human MD2; read-out: apparent Kd of HMGB1 binding to MD2, MD2 or HMGB1 immobilized on the chip): 12 nM
- HMGB1 binding to TLR4 in the absence of MD2 (human TLR4; disulfide HMGB1 100 nM): incapable of directly binding to TLR4

Molecule: N[C@@H](Cc1ccccc1)C(=O)N[C@@H](CO)C(=O)N[C@@H](CO)C(=O)N[C@@H](CCC(=O)O)C(=O)O [P5779, FSSE]
- HMGB1-induced release of IL-6, IL-12p40/p70, RANTES and MCP-1 [1]: significantly reduced
- LPS-induced systemic cytokine levels (serum TNF, IL-6) [2]: failed to attenuate
- binding to HMGB1 (HMGB1): failed to bind
- survival after APAP ([3]; 500 μg/mouse i.p. once a day for 5 days, 2 weeks): improved survival
- APAP-induced elevation of hepatic serum enzymes (AST, ALT), TNF, liver necrosis ([3]; 50 or 500 μg/mouse i.p. at 2 and 7 h post-APAP, 24 h): dose-dependently reduced
- LPS-stimulated cytokine/chemokine release in vitro [4]: did not inhibit
- survival after CLP vs scrambled peptide [5]: significantly and dose-dependently improved survival rates
- hepatic serum enzyme release (AST, ALT) and neutrophil infiltration [6]: significantly blunted
- inhibition of HMGB1-induced TNF release (qualitative) [7]: significantly inhibited
- binding to TLR4 (human TLR4; SPR, absence of MD2): failed to bind
- inhibition of TNF release mediated by Poly I:C, S100A12, LPS, PGN and CpG DNA [8]: failed to inhibit

Molecule: SFSE (MD2 binding protein) [control peptide, reference compound]
- inhibition of HMGB1-induced TNF release (qualitative) [7]: abolished the capacity to inhibit HMGB1-induced TNF release
- MD2-binding capacity (qualitative) (human MD2; peptides 100 nM): abolished the MD2-binding capacity

B1: H2S-modified HMGB1: HMGB1 with cysteine modified by H2S (NaSH) (protein, UniProt P09429 1-215, looked up)
High mobility group protein B1: T2 sequence (P63159 1-215) with D189E, E202D
modifications: cysteine modified by H2S
- TNF release induced by HMGB1 isoform (RAW 264.7 cells): failed to induce TNF release

B2: fully reduced HMGB1: HMGB1 with all cysteine residues reduced (protein)
chain: T2 sequence (P63159 1-215)
- TNF release induced by HMGB1 isoform (RAW 264.7 cells): failed to induce TNF release

B3: sulfonyl HMGB1: HMGB1 with all cysteines terminally oxidized (protein)
chain: T2 sequence (P63159 1-215)
- TNF release induced by HMGB1 isoform (RAW 264.7 cells): failed to induce TNF release
